# Data from the NIST ThermoML archive (doi:10.1016/j.jct.2011.05.036).
# Numbers after ± are expanded uncertainties.
# Experiment: mn = molality of the nth substance listed, in mol/kg
# Details: 298.15 K, 101 kPa, Liquid, Vibrating tube method
SMILES,mass density (m1 = 0.1262),mass density (m1 = 0.2647),mass density (m1 = 0.6529),mass density (m1 = 1.012),mass density (m1 = 1.477),mass density (m1 = 2.03),mass density (m1 = 2.537),mass density (m1 = 3.196),mass density (m1 = 3.75),mass density (m1 = 0.0212),mass density (m1 = 0.0584),mass density (m1 = 0.1012),mass density (m1 = 0.2396),mass density (m1 = 0.6942),mass density (m1 = 1.248),mass density (m1 = 2.273),mass density (m1 = 3.243),mass density (m1 = 4.387),mass density (m1 = 5.781),mass density (m1 = 7.087)
O=S(=O)(O)CC(O)CN1CCOCC1 (stereo not given) [3-morpholino-2-hydroxypropanesulfonic acid] + O,1006.93 ± 0.14 kg/m3,1017.35 ± 0.14 kg/m3,1044.51 ± 0.14 kg/m3,1067.2 ± 0.14 kg/m3,1093.32 ± 0.15 kg/m3,1120.89 ± 0.16 kg/m3,1142.98 ± 0.17 kg/m3,1168.39 ± 0.19 kg/m3,1187 ± 0.2 kg/m3,,,,,,,,,,,
O=S(=O)(O)CCCN1CCOCC1 [4-morpholinepropanesulfonic acid] + O,,,,,,,,,,998.4 ± 0.13 kg/m3,1000.76 ± 0.13 kg/m3,1003.44 ± 0.13 kg/m3,1011.89 ± 0.13 kg/m3,1037.46 ± 0.13 kg/m3,1064.7 ± 0.13 kg/m3,1106.41 ± 0.14 kg/m3,1138.03 ± 0.15 kg/m3,1168.14 ± 0.16 kg/m3,1195.72 ± 0.17 kg/m3,1217.61 ± 0.18 kg/m3
